# In US12611423B2, “Medical use of tafoxiparin” (DILAFOR AB, priority 2022, dated 2026):
# Tested on: term pregnant, nulliparous women with an unripe cervix
# Assay: Clinical phase II trial PPL17 (Parts A and B), subcutaneous tafoxiparin vs placebo
# Format: in vivo, human
# Details: for women achieving spontaneous onset of labor (FIG. 1): placebo 28.7%; for number of subjects (women) that reach spontaneous onset of labor / subjects (women) that reach spontaneous onset of labor, % of n: cumulative
# Procedure: A clinical phase II trial is performed as a randomized, double-blind, placebo-controlled, parallel-group proof of concept study (Part A) with a conditional dose finding follow up study (Part B) to evaluate the efficacy, safety, tolerability and dose response of subcutaneously administered tafoxiparin as a supplement to induction therapy in term pregnant, nulliparous women with an unripe cervix. The study is performed in Sweden and Finland (PPL17), and an EMA (European Medicines Agency) description of the study can be found on the EU Clinical Trials Register web (www.clinicaltrialsregister.eu/ctr-search/search?query=PPL17).
# A total of 170 term pregnant women are randomized to receive either 300 mg of tafoxiparin, or corresponding placebo (vehicle), administered subcutaneously every 24±3 hours and up to a total of 7 doses, or until partus (Part A).
# In the dose finding follow up study (Part B), a total of 164 term pregnant women are randomized to receive either 75 or 150 mg of tafoxiparin administered subcutaneously every 24±3 hours […] and up to a total of 7 doses, or until partus.
# To assess the efficacy of tafoxiparin on cervical ripening/cervical ripening rate, during and up to the first seven days of treatment, measured by Bishop score. All women must be examined to check the cervical state before enrollment.
# Tafoxiparin/Placebo is supplied by Dilafor AB to the site as kits designed to constitute 300 mg of tafoxiparin or placebo for daily administration. Apart from the active substance, each ml of study drug will constitute 0.015 M phosphate buffer. The study medication kit for each patient will contain 8 doses consisting of 2 vials containing a minimum extractable volume of 1.6 ml of 150 mg/ml of tafoxiparin or placebo. One dose is a reserve dose in case a dose is rendered unusable. The investigational product should be administered subcutaneously every 24±3 hours by the site staff for up to 7 doses, or until partus. At each dosing time 1.0 ml of the drug will be extracted from each of the 2 vials and injected as separate s.c. injections in the abdominal or hip region.
# Tafoxiparin/Placebo is supplied by Dilafor AB to the site as kits designed to constitute 75 or 150 mg of tafoxiparin for daily administration. Apart from the active substance, each ml of study drug will constitute 0.015 M phosphate buffer. The study medication kit for each patient will contain 8 doses consisting of 2 vials for each injection occasion containing a minimum extractable volume of 1.6 ml of 150 mg/ml of tafoxiparin or placebo. For subjects receiving 75 mg of tafoxiparin, one vial will contain active substance and one containing placebo. For subjects receiving 150 mg of tafoxiparin, both vials will contain active substance. One dose is a reserve dose in case a dose is rendered unusable. The investigational product should be administered subcutaneously every 24±3 hours by the site staff for up to 7 doses, or until partus. At each dosing time, 0.5 ml of the drug will be extracted from each of the 2 vials and injected as separate s.c. injections in the abdominal or hip region.
# If the subject is found to be eligible for the study, they will be randomized to study treatment, i.e. 300 mg of tafoxiparin or corresponding placebo daily (Part A), or 75 or 150 mg daily (Part B).
# The study medication will be administered subcutaneously in the abdominal or hip region for up to a total of 7 doses or until labor induction or spontaneous onset of labor. If the cervix is still unripe after 7 doses of IMP, the patient is given cervical balloon catheter as a mean of labor induction.
# Subjects who enter into spontaneous onset of labor after 1-7 doses of IMP should be managed according to clinical routines.
# Subjects who are given 4-7 doses without entering into spontaneous onset of labor, but with a ripe cervix (Bishop Score ≥6), should be induced into labor by amniotomy and oxytocin treatment, but not before 4 treatment doses have been given. […]
substance,measurement,setting,value
tafoxiparin,women achieving spontaneous onset of labor (FIG. 1),"75 mg s.c. once daily up to 7 doses, 33 women of 82, p-value 0.102",40.2%
same,women reaching spontaneous onset of labor with uncomplicated delivery,"75 mg, 22 of the 29 women, placebo 54.5%",75.9%
same,number of subjects (women) that reach spontaneous onset of labor,"75 mg, Study day 1, n = 33",0
same,"subjects (women) that reach spontaneous onset of labor, % of n","75 mg, Study day 1, n = 33",(0%)
same,number of subjects (women) that reach spontaneous onset of labor,"75 mg, Study day 2, n = 33",3
same,"subjects (women) that reach spontaneous onset of labor, % of n","75 mg, Study day 2, n = 33",(9%)
same,number of subjects (women) that reach spontaneous onset of labor,"75 mg, Study day 3, n = 33",6
same,"subjects (women) that reach spontaneous onset of labor, % of n","75 mg, Study day 3, n = 33",(18%)
same,number of subjects (women) that reach spontaneous onset of labor,"75 mg, Study day 4, n = 33",11
same,"subjects (women) that reach spontaneous onset of labor, % of n","75 mg, Study day 4, n = 33",(33%)
same,number of subjects (women) that reach spontaneous onset of labor,"75 mg, Study day 5, n = 33",22
same,"subjects (women) that reach spontaneous onset of labor, % of n","75 mg, Study day 5, n = 33",(67%)
same,number of subjects (women) that reach spontaneous onset of labor,"75 mg, Study day 6, n = 33",25
same,"subjects (women) that reach spontaneous onset of labor, % of n","75 mg, Study day 6, n = 33",(76%)
same,number of subjects (women) that reach spontaneous onset of labor,"75 mg, Study day 7, n = 33",32
same,"subjects (women) that reach spontaneous onset of labor, % of n","75 mg, Study day 7, n = 33",(97%)
same,number of subjects (women) that reach spontaneous onset of labor,"75 mg, Study day 8, n = 33",33
same,"subjects (women) that reach spontaneous onset of labor, % of n","75 mg, Study day 8, n = 33",(100%)
same,"Fetal distress as indication for operative delivery (ODFD), number of women","75 mg, n = 83",16
same,"Labor induced with PGE-1, number of women","75 mg, n = 83",7
same,"Labor induced with amniotomy, number of women","75 mg, n = 83",46
same,"Labor induced with oxytocin, number of women","75 mg, n = 83",34
same,"Labor induced, number of women","75 mg, n = 83",48
same,"Labor induction with Balloon catheter, number of women","75 mg, n = 83",35
same,Number of patients with operative delivery,"75 mg, n = 83",32
same,"Labor induced with PGE-1, % of women","75 mg, n = 83, placebo 10.2%",8.4%
same,"Fetal distress as indication for operative delivery (ODFD), % of women","75 mg, n = 83, placebo 22.7%",19.3%
same,"patients with operative delivery, %","75 mg, n = 83, placebo 45.5%",38.6%
same,"Labor induced with oxytocin, % of women","75 mg, n = 83, placebo 54.5%",41.0%
same,"Labor induced with amniotomy, % of women","75 mg, n = 83, placebo 56.8%",55.4%
same,"Labor induction with Balloon catheter, % of women","75 mg, n = 83, placebo 58.0%",42.2%
same,"Labor induced, % of women","75 mg, n = 83, placebo 70.5%",57.8%
same,"women needing instrumental delivery (FIG. 4, vaginal mode of partus)","75 mg, women with spontaneous onset of labor, 7 of the 29 women, p-value=0.181, placebo 45.5%",24.1%
same,women needing instrumental delivery or caesarian section to reach partus (FIG. 5),"75 mg, women with spontaneous onset of labor, 11 of 33 women, placebo 52%",33.3%
same,women reaching partus by vaginal delivery with no need for instrumental delivery nor caesarian section (FIG. 5),"75 mg, women with spontaneous onset of labor, 22 of 33 women, placebo 48%",66.7%
same,women achieving spontaneous onset of labor (FIG. 1),"150 mg s.c. once daily up to 7 doses, 36 women of 85, p-value 0.039",42.4%
same,women reaching spontaneous onset of labor with uncomplicated delivery,"150 mg, 23 of the 32 women, placebo 54.5%",71.9%
same,number of subjects (women) that reach spontaneous onset of labor,"150 mg, Study day 1, n = 36",0
same,"subjects (women) that reach spontaneous onset of labor, % of n","150 mg, Study day 1, n = 36",(0%)
same,number of subjects (women) that reach spontaneous onset of labor,"150 mg, Study day 2, n = 36",4
same,"subjects (women) that reach spontaneous onset of labor, % of n","150 mg, Study day 2, n = 36",(11%)
same,number of subjects (women) that reach spontaneous onset of labor,"150 mg, Study day 3, n = 36",15
same,"subjects (women) that reach spontaneous onset of labor, % of n","150 mg, Study day 3, n = 36",(42%)
same,number of subjects (women) that reach spontaneous onset of labor,"150 mg, Study day 4, n = 36",19
same,"subjects (women) that reach spontaneous onset of labor, % of n","150 mg, Study day 4, n = 36",(53%)
same,number of subjects (women) that reach spontaneous onset of labor,"150 mg, Study day 5, n = 36",26
same,"subjects (women) that reach spontaneous onset of labor, % of n","150 mg, Study day 5, n = 36",(72%)
same,number of subjects (women) that reach spontaneous onset of labor,"150 mg, Study day 6, n = 36",30
same,"subjects (women) that reach spontaneous onset of labor, % of n","150 mg, Study day 6, n = 36",(83%)
same,number of subjects (women) that reach spontaneous onset of labor,"150 mg, Study day 7, n = 36",34
same,"subjects (women) that reach spontaneous onset of labor, % of n","150 mg, Study day 7, n = 36",(94%)
same,number of subjects (women) that reach spontaneous onset of labor,"150 mg, Study day 8, n = 36",35
same,"subjects (women) that reach spontaneous onset of labor, % of n","150 mg, Study day 8, n = 36",(97%)
same,number of subjects (women) that reach spontaneous onset of labor,"150 mg, Study day 9, n = 36",36
same,"subjects (women) that reach spontaneous onset of labor, % of n","150 mg, Study day 9, n = 36",(100%)
same,"Fetal distress as indication for operative delivery (ODFD), number of women","150 mg, n = 85",20
same,"Labor induced with PGE-1, number of women","150 mg, n = 85",7
same,"Labor induced with amniotomy, number of women","150 mg, n = 85",39
